Tested on: plasma metabolites
Experiment: Metabolomic analysis of plasma
Assay type: in vivo, mice
Method: Metabolomic analyses were conducted at Metabolon (Durham, NC, USA) as described previously. For statistical analyses and data display, any missing values were assumed to be below the limits of detection and imputed with the compound minimum (minimum value imputation). An estimate of the FDR (Q value) was calculated to take into account the multiple comparisons that normally occur in metabolomics-based studies, with Q < 0.05 used as an indication of high confidence in a result. The MetaboAnalyst tool was used to generate heat maps.

[1] = AD mice fed CAD-31 200 ppm 3 months vs AD
[2] = WT control mice fed CAD-31 200 ppm 3 months vs control

Cc1ccc(N(/N=C/c2cccc(OC(F)(F)F)c2)C(=O)C(F)(F)F)c(C)c1 [CAD-31]
1,2-dipalmitoyl-GPC (16:0/16:0) Fold Change AD+31/AD [1]: 1.12
1-arachidonoyl-GPC (20:4n6)* Fold Change AD+31/AD [1]: 1.17
1-myristoylglycerol (14:0) Fold Change AD+31/AD [1]: 0.94
1-oleoylglycerol (18:1) Fold Change AD+31/AD [1]: 1.17
1-palmitoyl-2-arachidonoyl-GPC (16:0/20:4n6) Fold Change AD+31/AD [1]: 1.19
1-palmitoyl-2-stearoyl-GPC (16:0/18:0) Fold Change AD+31/AD [1]: 1.23
1-stearoyl-GPE (18:0) Fold Change AD+31/AD [1]: 1.22
2-palmitoylglycerol (16:0) Fold Change AD+31/AD [1]: 1.22
3-acetylphenol sulfate Fold Change AD+31/AD [1]: 0.59
3-ethylphenylsulfate Fold Change AD+31/AD [1]: 2.39
3-hydroxy-3-methylglutarate Fold Change AD+31/AD [1]: 1.53
3-hydroxybutyrate (BHBA) Fold Change AD+31/AD [1]: 1.21
3-hydroxypyridine sulfate Fold Change AD+31/AD [1]: 1.07
3-indoxyl sulfate Fold Change AD+31/AD [1]: 1.15
4-hydroxyhippurate Fold Change AD+31/AD [1]: 0.73
4-hydroxyphenylpyruvate Fold Change AD+31/AD [1]: 1.05
5-hydroxyindoleacetate Fold Change AD+31/AD [1]: 1.01
5-oxoproline Fold Change AD+31/AD [1]: 1.02
7-ketodeoxycholate Fold Change AD+31/AD [1]: 0.18
9,10-DiHOME Fold Change AD+31/AD [1]: 0.99
10-heptadecenoate (17:1n7) Fold Change AD+31/AD [1]: 0.84
10-nonadecenoate (19:1n9) Fold Change AD+31/AD [1]: 0.87
10-undecenoate (11:1n1) Fold Change AD+31/AD [1]: 0.41
15-methylpalmitate Fold Change AD+31/AD [1]: 0.68
17-methylstearate Fold Change AD+31/AD [1]: 0.84
N2-acetyllysine Fold Change AD+31/AD [1]: 1.12
N-acetyl-3-methylhistidine* Fold Change AD+31/AD [1]: 0.86
N-acetylmethionine Fold Change AD+31/AD [1]: 1.14
N-acetylphenylalanine Fold Change AD+31/AD [1]: 1.1
N-acetylserine Fold Change AD+31/AD [1]: 1.11
N-carbamoylaspartate Fold Change AD+31/AD [1]: 1.97
N-delta-acetylornithine Fold Change AD+31/AD [1]: 1.22
N-palmitoyl-sphinganine (d18:0/16:0) Fold Change AD+31/AD [1]: 1.49
N-stearoyl-sphingosine (d18:1/18:0)* Fold Change AD+31/AD [1]: 1.5
acetylcarnitine Fold Change AD+31/AD [1]: 0.97
alpha-tocopherol Fold Change AD+31/AD [1]: 1.29
arabonate/xylonate Fold Change AD+31/AD [1]: 1.47
asparagine Fold Change AD+31/AD [1]: 0.97
beta-muricholate Fold Change AD+31/AD [1]: 0.41
caffeic acid sulfate Fold Change AD+31/AD [1]: 1.19
carnosine Fold Change AD+31/AD [1]: 0.68
chenodeoxycholate Fold Change AD+31/AD [1]: 0.26
choline phosphate Fold Change AD+31/AD [1]: 1.11
creatine Fold Change AD+31/AD [1]: 1.02
dihydroorotate Fold Change AD+31/AD [1]: 1.19
dopamine sulfate (2) Fold Change AD+31/AD [1]: 2.01
equol glucuronide Fold Change AD+31/AD [1]: 0.22
ergothioneine Fold Change AD+31/AD [1]: 0.44
erythritol Fold Change AD+31/AD [1]: 1.1
erythronate* Fold Change AD+31/AD [1]: 1.14
gamma-glutamylglutamate Fold Change AD+31/AD [1]: 0.97
gamma-glutamylglutamine Fold Change AD+31/AD [1]: 0.99
gamma-glutamylleucine Fold Change AD+31/AD [1]: 1.02
gamma-glutamylmethionine Fold Change AD+31/AD [1]: 1.04
gamma-glutamylphenylalanine Fold Change AD+31/AD [1]: 0.97
gamma-glutamylthreonine Fold Change AD+31/AD [1]: 1.03
gamma-glutamyltryptophan Fold Change AD+31/AD [1]: 0.78
gamma-glutamyltyrosine Fold Change AD+31/AD [1]: 0.92
glucuronate Fold Change AD+31/AD [1]: 1.18
glutamate Fold Change AD+31/AD [1]: 0.99
glutathione, oxidized (GSSG) Fold Change AD+31/AD [1]: 1.46
glycosyl-N-palmitoyl-sphingosine (d18:1/16:0) Fold Change AD+31/AD [1]: 1.29
glycosyl-N-stearoyl-sphingosine (d18:1/18:0) Fold Change AD+31/AD [1]: 1.42
gulonate* Fold Change AD+31/AD [1]: 1.59
hexanoylglycine Fold Change AD+31/AD [1]: 1.03
indoleacetylglycine Fold Change AD+31/AD [1]: 0.89
isobutyrylcarnitine Fold Change AD+31/AD [1]: 2.26
linoleate (18:2n6) Fold Change AD+31/AD [1]: 0.98
margarate (17:0) Fold Change AD+31/AD [1]: 0.9
methionine sulfoxide Fold Change AD+31/AD [1]: 1.26
methylmalonate (MMA) Fold Change AD+31/AD [1]: 1.15
o-cresol sulfate Fold Change AD+31/AD [1]: 1.63
oleoylcarnitine Fold Change AD+31/AD [1]: 0.94
palmitoleoylcarnitine* Fold Change AD+31/AD [1]: 0.97
palmitoyl dihydrosphingomyelin (d18:0/16:0)* Fold Change AD+31/AD [1]: 1.32
palmitoyl sphingomyelin (d18:1/16:0) Fold Change AD+31/AD [1]: 1.22
palmitoyl-palmitoyl-glycerol (16:0/16:0) [1]* Fold Change AD+31/AD [1]: 1.17
pentadecanoate (15:0) Fold Change AD+31/AD [1]: 0.95
phenol sulfate Fold Change AD+31/AD [1]: 1.03
phenylpropionylglycine Fold Change AD+31/AD [1]: 2.89
phosphoethanolamine Fold Change AD+31/AD [1]: 1.05
pyridoxal Fold Change AD+31/AD [1]: 1.22
pyridoxate Fold Change AD+31/AD [1]: 1.49
pyruvate Fold Change AD+31/AD [1]: 1.04
ribonate Fold Change AD+31/AD [1]: 1.53
sphinganine-1-phosphate Fold Change AD+31/AD [1]: 1.45
sphingosine Fold Change AD+31/AD [1]: 1.35
stearidonate (18:4n3) Fold Change AD+31/AD [1]: 0.87
suberate (octanedioate) Fold Change AD+31/AD [1]: 1.33
sucrose Fold Change AD+31/AD [1]: 2.83
tartronate (hydroxymalonate) Fold Change AD+31/AD [1]: 0.99
taurine Fold Change AD+31/AD [1]: 0.91
threonine Fold Change AD+31/AD [1]: 1.08
tryptophan Fold Change AD+31/AD [1]: 0.91
ursodeoxycholate Fold Change AD+31/AD [1]: 0.23
1,2-dipalmitoyl-GPC (16:0/16:0) Fold Change C+31/C [2]: 1.26
1-arachidonoyl-GPC (20:4n6)* Fold Change C+31/C [2]: 1.04
1-myristoylglycerol (14:0) Fold Change C+31/C [2]: 0.59
1-oleoylglycerol (18:1) Fold Change C+31/C [2]: 0.64
1-palmitoyl-2-arachidonoyl-GPC (16:0/20:4n6) Fold Change C+31/C [2]: 1.11
1-palmitoyl-2-stearoyl-GPC (16:0/18:0) Fold Change C+31/C [2]: 1.1
1-stearoyl-GPE (18:0) Fold Change C+31/C [2]: 1.01
2-palmitoylglycerol (16:0) Fold Change C+31/C [2]: 0.79
3-acetylphenol sulfate Fold Change C+31/C [2]: 0.21
3-ethylphenylsulfate Fold Change C+31/C [2]: 2.27
3-hydroxy-3-methylglutarate Fold Change C+31/C [2]: 0.99
3-hydroxybutyrate (BHBA) Fold Change C+31/C [2]: 1.83
3-hydroxypyridine sulfate Fold Change C+31/C [2]: 0.72
3-indoxyl sulfate Fold Change C+31/C [2]: 0.63
4-hydroxyhippurate Fold Change C+31/C [2]: 0.42
4-hydroxyphenylpyruvate Fold Change C+31/C [2]: 1.65
5-hydroxyindoleacetate Fold Change C+31/C [2]: 0.83
5-oxoproline Fold Change C+31/C [2]: 1.27
7-ketodeoxycholate Fold Change C+31/C [2]: 1.33
9,10-DiHOME Fold Change C+31/C [2]: 0.65
10-heptadecenoate (17:1n7) Fold Change C+31/C [2]: 0.51
10-nonadecenoate (19:1n9) Fold Change C+31/C [2]: 0.6
10-undecenoate (11:1n1) Fold Change C+31/C [2]: 0.75
15-methylpalmitate Fold Change C+31/C [2]: 0.52
17-methylstearate Fold Change C+31/C [2]: 0.62
N2-acetyllysine Fold Change C+31/C [2]: 0.71
N-acetyl-3-methylhistidine* Fold Change C+31/C [2]: 0.84
N-acetylmethionine Fold Change C+31/C [2]: 1.6
N-acetylphenylalanine Fold Change C+31/C [2]: 1.41
N-acetylserine Fold Change C+31/C [2]: 1.09
N-carbamoylaspartate Fold Change C+31/C [2]: 0.54
N-delta-acetylornithine Fold Change C+31/C [2]: 1.42
N-palmitoyl-sphinganine (d18:0/16:0) Fold Change C+31/C [2]: 1.08
N-stearoyl-sphingosine (d18:1/18:0)* Fold Change C+31/C [2]: 1.12
acetylcarnitine Fold Change C+31/C [2]: 1.65
alpha-tocopherol Fold Change C+31/C [2]: 1.05
arabonate/xylonate Fold Change C+31/C [2]: 0.83
asparagine Fold Change C+31/C [2]: 1.48
beta-muricholate Fold Change C+31/C [2]: 1.78
caffeic acid sulfate Fold Change C+31/C [2]: 2.12
carnosine Fold Change C+31/C [2]: 0.62
chenodeoxycholate Fold Change C+31/C [2]: 0.67
choline phosphate Fold Change C+31/C [2]: 1.53
creatine Fold Change C+31/C [2]: 1.23
dihydroorotate Fold Change C+31/C [2]: 2.98
dopamine sulfate (2) Fold Change C+31/C [2]: 0.94
equol glucuronide Fold Change C+31/C [2]: 0.18
ergothioneine Fold Change C+31/C [2]: 0.68
erythritol Fold Change C+31/C [2]: 1.06
erythronate* Fold Change C+31/C [2]: 1.02
gamma-glutamylglutamate Fold Change C+31/C [2]: 2.69
gamma-glutamylglutamine Fold Change C+31/C [2]: 1.94
gamma-glutamylleucine Fold Change C+31/C [2]: 1.86
gamma-glutamylmethionine Fold Change C+31/C [2]: 2.24
gamma-glutamylphenylalanine Fold Change C+31/C [2]: 1.84
gamma-glutamylthreonine Fold Change C+31/C [2]: 2.07
gamma-glutamyltryptophan Fold Change C+31/C [2]: 1.81
gamma-glutamyltyrosine Fold Change C+31/C [2]: 2.33
glucuronate Fold Change C+31/C [2]: 1.04
glutamate Fold Change C+31/C [2]: 1.71
glutathione, oxidized (GSSG) Fold Change C+31/C [2]: 2.09
glycosyl-N-palmitoyl-sphingosine (d18:1/16:0) Fold Change C+31/C [2]: 1.25
glycosyl-N-stearoyl-sphingosine (d18:1/18:0) Fold Change C+31/C [2]: 0.76
gulonate* Fold Change C+31/C [2]: 1.01
hexanoylglycine Fold Change C+31/C [2]: 2.77
indoleacetylglycine Fold Change C+31/C [2]: 0.57
isobutyrylcarnitine Fold Change C+31/C [2]: 5.46
linoleate (18:2n6) Fold Change C+31/C [2]: 0.67
margarate (17:0) Fold Change C+31/C [2]: 0.6
methionine sulfoxide Fold Change C+31/C [2]: 1.52
methylmalonate (MMA) Fold Change C+31/C [2]: 0.87
o-cresol sulfate Fold Change C+31/C [2]: 0.93
oleoylcarnitine Fold Change C+31/C [2]: 1.42
palmitoleoylcarnitine* Fold Change C+31/C [2]: 1.81
palmitoyl dihydrosphingomyelin (d18:0/16:0)* Fold Change C+31/C [2]: 1.09
palmitoyl sphingomyelin (d18:1/16:0) Fold Change C+31/C [2]: 1.05
palmitoyl-palmitoyl-glycerol (16:0/16:0) [1]* Fold Change C+31/C [2]: 0.51
pentadecanoate (15:0) Fold Change C+31/C [2]: 0.71
phenol sulfate Fold Change C+31/C [2]: 0.59
phenylpropionylglycine Fold Change C+31/C [2]: 3.88
phosphoethanolamine Fold Change C+31/C [2]: 1.64
pyridoxal Fold Change C+31/C [2]: 1.54
pyridoxate Fold Change C+31/C [2]: 1.33
pyruvate Fold Change C+31/C [2]: 1.2
ribonate Fold Change C+31/C [2]: 1.07
sphinganine-1-phosphate Fold Change C+31/C [2]: 2.52
sphingosine Fold Change C+31/C [2]: 1.14
stearidonate (18:4n3) Fold Change C+31/C [2]: 0.65
suberate (octanedioate) Fold Change C+31/C [2]: 1.17
sucrose Fold Change C+31/C [2]: 2.7
tartronate (hydroxymalonate) Fold Change C+31/C [2]: 1.47
taurine Fold Change C+31/C [2]: 1.26
threonine Fold Change C+31/C [2]: 1.42
tryptophan Fold Change C+31/C [2]: 1.12
ursodeoxycholate Fold Change C+31/C [2]: 0.49
